Experimental data from publication PMC6533283, “Deciphering the regulatory and catalytic mechanisms of an unusual SAM-dependent enzyme” (Signal Transduction and Targeted Therapy, 2019).
Several values for one entry are separate records, joined by “and”; a condition that tells them apart may be missing. Equal entries are not always repeated.

Legend:
[1] = molecular target: T1, LepI (Aspergillus flavus, UniProt B8NJH3); experiment: HPLC assay of retro-Claisen rearrangement of compound […]; type: biochemical; conditions: read-out: % inhibition at 0.5 mM
T1 construct: codon-optimized gene in pET-15b (NdeI/XhoI), N-terminal His tag, E. coli BL21(DE3); homodimer; SAM and MTA partly copurify

[2] = molecular target: T1, LepI; experiment: HPLC assay of retro-Claisen rearrangement of compound […], rescue of SAH/MTA inhibition; type: biochemical; conditions: 1 mM SI with 1 mM SAH or 1 mM MTA, 300 nM LepI, pH 8.0, 30 °C; SAM analogue, activator
[3] = molecular target: the molecule itself; experiment: crystal structure; LepI crystals grown in 0.15 M bis-Tris pH 7.0, 40% PEG 400; structures with SAM/MTA (1.7 Å), SAH (2.7 Å) and SAM/compound 1 (2.2 Å); two molecules in the asymmetric unit
[4] = molecular target: the molecule itself; experiment: SEC; analytical gel filtration, Superdex 200 Increase 10/30 GL, protein at 1 mg/mL, 20 mM Na2HPO4, 50 mM NaCl, pH 8.0; sizes by standard protein markers

CSC[C@H]1O[C@@H](n2cnc3c(N)ncnc32)[C@H](O)[C@@H]1O [MTA]
inhibition at 500 µM [1]: 30%

Nc1ncnc2c1ncn2[C@@H]1O[C@H](C[C@@H](N)CC[C@H](N)C(=O)O)[C@@H](O)[C@H]1O [Sinefungin]
HPLC assay of retro-Claisen rearrangement of compound 1, rescue of SAH/MTA inhib [2]: both SAM and SI completely rescued LepI activity for retro-Claisen rearrangement

B1: leporin biosynthesis enzyme LepI (enzyme, Aspergillus flavus)
chain: METVAAIKTLIQQLAQSTDQFGRAEINDALRELQYSLETPFDTVMRMSLDTCQVAVARIGSDLGLFKHLSQCASPQSAEELADHLGCGRELMSRLLRYMASVRMVQQTDDIKYISSNITQTLAVPGLEAGMRHAFENLWPVLMALPDFLAERKYPDIVDAKDTAFQKAFNTDQDCFHWLATQPTRIANFKVLLTDERTPNFLSTFPLEKELGSWSAEPEKALFVDIGGGMGHACIRLREKYPNQPGRVILQDLPPVLQAAQATLPLSGIESMPHNFHTPQPVQGAKFYFLRLILRDFPDHQALEILQNIVPAMDAESRIVIDDGVPPEKGARWAETGTDICIMSALGSKERTQRQWEELAAKAGLQLQALYQYTWPVVNAAMVFSLQ
notes: LepI, SAM-dependent enzyme of the leporin biosynthesis gene cluster of Aspergillus flavus; codon-optimized gene in pET-15b between NdeI and XhoI; Homodimer in the asymmetric unit of the crystal; Endogenous SAM and MTA co-purified with the protein; A selenomethionine form was used for phasing; also called wild-type (WT) LepI; native-LepI; source: E. coli BL21 (DE3), purified (Ni resin, …)
binding result [3]: binds

B2: LepI-Δ15 (domain or fragment, Aspergillus flavus, UniProt B8NJH3 16-387, looked up)
chain: QSTDQFGRAEINDALRELQYSLETPFDTVMRMSLDTCQVAVARIGSDLGLFKHLSQCASPQSAEELADHLGCGRELMSRLLRYMASVRMVQQTDDIKYISSNITQTLAVPGLEAGMRHAFENLWPVLMALPDFLAERKYPDIVDAKDTAFQKAFNTDQDCFHWLATQPTRIANFKVLLTDERTPNFLSTFPLEKELGSWSAEPEKALFVDIGGGMGHACIRLREKYPNQPGRVILQDLPPVLQAAQATLPLSGIESMPHNFHTPQPVQGAKFYFLRLILRDFPDHQALEILQNIVPAMDAESRIVIDDGVPPEKGARWAETGTDICIMSALGSKERTQRQWEELAAKAGLQLQALYQYTWPVVNAAMVFSLQ
notes: LepI of Aspergillus flavus with an N-terminal deletion (Δ15, removes helix α1); N-terminal truncation designed from the structure to disrupt dimerization; also called α1 single deletion of LepI; α1 single deleted enzyme; source: E. coli, purified as described for LepI
stoichiometry N [4]: 2 and 4
